How the values were obtained:
A549 = assay: Antiproliferative activity against human A549 cells after 72 hrs by MTT assay; type: functional, cell-based; conditions: A549, 72 h
HL-60 [1] = assay: Antiproliferative activity against human HL60 cells after 72 hrs by MTT assay; type: functional, cell-based; conditions: HL-60, 72 h
HL-60 [2] = assay: Antiproliferative activity against human HL60 cells by MTT assay; type: functional, cell-based
SMMC-7721 = assay: Antiproliferative activity against human SMMC7721 cells by MTT assay; type: functional, cell-based
L1210 = assay: Antiproliferative activity against mouse L1210 cells by MTT assay; type: functional, cell-based
PC-3 = assay: Cytotoxicity against human PC3 cells assessed as reduction in cell viability; type: functional, cell-based
MCF7 = assay: Cytotoxicity against human MCF7 cells assessed as reduction in cell viability; type: functional, cell-based
MGC-803 = assay: Cytotoxicity against human MGC803 cells assessed as reduction in cell viability; type: functional, cell-based
HepG2 = assay: Cytotoxicity against human HepG2 cells assessed as reduction in cell viability; type: functional, cell-based
NCI-H460 = assay: Cytotoxicity against human NCI-H460 cells assessed as reduction in cell viability; type: functional, cell-based
SW-620 = assay: Cytotoxicity against human SW620 cells assessed as reduction in cell viability; type: functional, cell-based
GES1 = assay: Cytotoxicity against human GES-1 cells assessed as reduction in cell viability; type: cell-based

| IC50 (A549) [nM] | IC50 (HL-60 [1]) [nM] | IC50 (HL-60 [2]) [nM] | IC50 (SMMC-7721) [nM] | IC50 (L1210) [nM] | SMILES | also measured |
| --- | --- | --- | --- | --- | --- | --- |
| 32 to 161 | 32 to 161 | – | – | – | CCn1cc(C(=O)O)c(=O)c2cc(F)c(N3CCN(C(=N)NS(=O)(=O)c4ccc(C(F)(F)F)cc4)CC3)cc21 | – |
| 32 to 161 | 32 to 161 | – | – | – | N=C(NS(=O)(=O)c1cccc(Cl)c1)N1CCN(c2cc3c(cc2F)c(=O)c(C(=O)O)cn3C2CC2)CC1 | – |
| – | – | 1000 to 48600 | 1000 to 48600 | 1000 to 48600 | Nc1cccc(C2=NN=C3C(F)=Cc4c(n(C5CC5)cc(C(=O)O)c4=O)N3C2)c1 | – |
| – | – | 1000 to 48600 | 1000 to 48600 | 1000 to 48600 | Cc1ccc(C2=NN=C3C(F)=Cc4c(n(C5CC5)cc(C(=O)O)c4=O)N3C2)cc1 | – |
| 32 to 161 | 32 to 161 | – | – | – | CCn1cc(C(=O)O)c(=O)c2cc(F)c(N3CCN(C(=N)NS(=O)(=O)c4cccc(Cl)c4)CC3)cc21 | – |
| 32 to 161 | 32 to 161 | – | – | – | N=C(NS(=O)(=O)c1ccc(Cl)cc1)N1CCN(c2cc3c(cc2F)c(=O)c(C(=O)O)cn3C2CC2)CC1 | – |
| 32 to 161 | 32 to 161 | – | – | – | CCn1cc(C(=O)O)c(=O)c2cc(F)c(N3CCN(C(=N)NS(=O)(=O)c4ccc(Cl)cc4)CC3)cc21 | – |
| 32 to 161 | 32 to 161 | – | – | – | CCn1cc(C(=O)O)c(=O)c2cc(F)c(N3CCN(C(=N)NS(=O)(=O)c4ccccc4)CC3)cc21 | – |
| – | – | 1000 to 48600 | 1000 to 48600 | 1000 to 48600 | COc1ccccc1C1=NN=C2C(F)=Cc3c(n(C4CC4)cc(C(=O)O)c3=O)N2C1 | – |
| – | – | 1000 to 48600 | 1000 to 48600 | 1000 to 48600 | O=C(O)c1cn(C2CC2)c2c(c1=O)C=C(F)C1=NN=C(c3ccccc3)CN12 | – |
| 32 to 161 | 32 to 161 | – | – | – | N=C(NS(=O)(=O)c1ccccc1C(F)(F)F)N1CCN(c2cc3c(cc2F)c(=O)c(C(=O)O)cn3C2CC2)CC1 | – |
| – | – | 1000 to 48600 | 1000 | 3500 | O=C(O)c1cn(C2CC2)c2c(c1=O)C=C(F)C1=NN=C(c3ccc([N+](=O)[O-])cc3)CN12 | – |
| – | – | 1000 to 48600 | 1000 to 48600 | 1000 to 48600 | O=C(O)c1cn(C2CC2)c2c(c1=O)C=C(F)C1=NN=C(c3cccc(Cl)c3)CN12 | – |
| – | – | – | – | – | C[C@H]1COc2c(N3CCN(C)CC3)c(F)cc3c(=O)c(-c4nnc(NC(=O)CCCCCC(=O)NO)s4)cn1c23 | IC50 (PC-3): 19 to 127 nM; IC50 (MCF7): 19 to 127 nM; IC50 (MGC-803): 19 to 127 nM; IC50 (HepG2): 19 to 127 nM; IC50 (NCI-H460): 19 to 127 nM; IC50 (SW-620): 19 to 127 nM; IC50 (GES1): > 81500 nM |
| – | – | 1000 to 48600 | 1600 | 3200 | O=C(O)c1cn(C2CC2)c2c(c1=O)C=C(F)C1=NN=C(c3cccc([N+](=O)[O-])c3)CN12 | – |
| – | – | 1000 to 48600 | 1000 to 48600 | 1000 to 48600 | Cc1ccccc1C1=NN=C2C(F)=Cc3c(n(C4CC4)cc(C(=O)O)c3=O)N2C1 | – |
| – | – | 1000 to 48600 | 1000 to 48600 | 1000 to 48600 | O=C(O)c1cn(C2CC2)c2c(c1=O)C=C(F)C1=NN=C(c3ccccc3F)CN12 | – |
| 32 to 161 | 32 to 161 | – | – | – | CCn1cc(C(=O)O)c(=O)c2cc(F)c(N3CCN(C(=N)NS(=O)(=O)c4ccc(C)cc4)CC3)cc21 | – |
| – | – | 1000 to 48600 | 1000 to 48600 | 1000 to 48600 | O=C(O)c1cn(C2CC2)c2c(c1=O)C=C(F)C1=NN=C(c3ccc(Cl)cc3)CN12 | – |
| – | – | – | – | – | C[C@H]1COc2c(N3CCN(C)CC3)c(F)cc3c(=O)c(-c4nnc(NC(=O)CCCCC(=O)O)s4)cn1c23 | IC50 (PC-3): 1100 to 14300 nM; IC50 (MCF7): 1100 to 14300 nM; IC50 (MGC-803): 1100 to 14300 nM; IC50 (HepG2): 1100 to 14300 nM; IC50 (NCI-H460): 1100 to 14300 nM; IC50 (SW-620): 1100 to 14300 nM; IC50 (GES1): > 81500 nM |
| – | – | – | – | – | C[C@H]1COc2c(N3CCN(C)CC3)c(F)cc3c(=O)c(-c4nnc(NC(=O)CCCCCCCC(=O)NO)s4)cn1c23 | IC50 (PC-3): 19 to 127 nM; IC50 (MCF7): 19 to 127 nM; IC50 (MGC-803): 19 to 127 nM; IC50 (HepG2): 19 to 127 nM; IC50 (NCI-H460): 19 to 127 nM; IC50 (SW-620): 19 to 127 nM; IC50 (GES1): > 81500 nM |
| 32 to 79 | 32 to 79 | – | – | – | CCn1cc(C(=O)O)c(=O)c2cc(F)c(N3CCN(C(=N)NS(=O)(=O)c4ccccc4Cl)CC3)cc21 | – |
| 32 to 161 | 32 to 161 | – | – | – | N=C(NS(=O)(=O)c1ccc(C(F)(F)F)cc1)N1CCN(c2cc3c(cc2F)c(=O)c(C(=O)O)cn3C2CC2)CC1 | – |

Reference: ChEMBL document CHEMBL4613209, “Quinolone hybrids and their anti-cancer activities: An overview” (Eur J Med Chem, 2019)
